The term IC50 denotes the concentration at which inhibition is half-maximal.

The assay concerns the target T1, Ferroportin (Homo sapiens, UniProt Q9NP59).
T1 sequence (Q9NP59 whole entry): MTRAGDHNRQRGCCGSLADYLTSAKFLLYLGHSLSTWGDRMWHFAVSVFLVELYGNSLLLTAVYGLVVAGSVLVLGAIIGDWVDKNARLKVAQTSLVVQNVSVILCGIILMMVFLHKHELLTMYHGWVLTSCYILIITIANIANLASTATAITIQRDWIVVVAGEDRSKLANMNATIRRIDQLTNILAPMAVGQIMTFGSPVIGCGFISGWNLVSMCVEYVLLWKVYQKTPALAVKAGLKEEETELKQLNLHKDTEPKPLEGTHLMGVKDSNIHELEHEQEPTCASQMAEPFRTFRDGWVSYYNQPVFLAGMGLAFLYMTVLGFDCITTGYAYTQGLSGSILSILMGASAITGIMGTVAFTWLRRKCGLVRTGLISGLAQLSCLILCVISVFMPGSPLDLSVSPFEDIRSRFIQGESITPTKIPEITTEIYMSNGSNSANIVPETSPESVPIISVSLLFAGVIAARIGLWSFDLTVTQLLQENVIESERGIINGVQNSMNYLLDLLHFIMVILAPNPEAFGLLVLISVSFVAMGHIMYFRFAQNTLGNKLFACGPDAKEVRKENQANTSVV
The assay is described as follows: Antagonist activity at C-terminal halo-tag fused human ferroportin expressed in MDCK cells assessed as inhibition of hepcidin-induced ferroportin internalization after overnight incubation by Draq5 staining-based fluorescence assay. Format: cell-based.
On to `Cc1ccc2cccc(NS(=O)(=O)c3ccccc3)c2n1`, for which the IC50 stood at 100 µM.

For the compound `Cc1ccc2cccc(NS(=O)(=O)c3ccccc3N)c2n1`, the IC50 was determined as 100 µM.

Consider `COc1ccc(S(=O)(=O)Nc2cccc3cccnc23)c(N)c1`, for which the IC50 is 100 µM.

For `COc1ccc(S(=O)(=O)Nc2cccc3cccnc23)cc1`, the IC50 was 100 µM.

Regarding `Cc1cc(NS(=O)(=O)c2ccccc2)c2ncccc2c1Cl`, the IC50 is 100 µM.

As to `COc1ccnc2c3c(ccc12)-c1ccccc1S(=O)(=O)N3`, the IC50 worked out at 100 µM.

Take `O=S(=O)(Nc1c(Cl)ccc2cccnc12)c1ccccc1`: the IC50 was found to be 100 µM.

As to `COc1cc(NS(=O)(=O)Nc2cccc(Cl)c2C)c2ncccc2c1`, the IC50 was found to be 100 µM.

Consider `O=S(=O)(Nc1ccc(Br)c2cccnc12)c1ccccc1`, for which the IC50 is 100 µM.

In the case of `Cc1cnc2c(NS(=O)(=O)c3ccc(Cl)cc3Cl)cccc2c1`, the IC50 was 100 µM.

As to `Nc1cc(C(F)(F)F)ccc1S(=O)(=O)Nc1ccc(Cl)c2cccnc12`, the IC50 came out at 100 µM.

For the compound `COc1ccc2cccnc2c1NS(=O)(=O)c1ccccc1`, the IC50 amounted to 100 µM.

As to `O=S(=O)(Nc1ccc(Cl)c2cccnc12)c1ccc(Cl)cc1Cl`, the IC50 was 100 µM.

Consider `Cc1ccc2cccnc2c1NS(=O)(=O)c1ccccc1`, for which the IC50 was 100 µM.

Consider `CN1c2c(ccc3cccnc23)-c2ccccc2S1(=O)=O`, for which the half-inhibitory concentration (IC50) stood at 100 µM.

Regarding `O=S(=O)(Nc1cccc2cccnc12)c1c(Cl)cccc1Cl`, the IC50 is 100 µM.

As to `Cc1ccc2ccc3c(c2n1)NS(=O)(=O)c1ccccc1-3`, the IC50 stood at 100 µM.

For `CCOc1cc(NS(=O)(=O)c2ccccc2)c2ncccc2c1`, the IC50 worked out at 100 µM.

`CCc1ccc2cccnc2c1NS(=O)(=O)c1ccccc1`: the IC50 was determined as 100 µM.

Consider `COc1ccnc2c(NS(=O)(=O)c3ccccc3)cccc12`, for which the 50% inhibitory concentration (IC50) stood at 100 µM.

`O=S(=O)(Nc1cccc2ccc(Cl)nc12)c1ccccc1`: the IC50 turned out to be 100 µM.

On to `COc1cc(NS(=O)(=O)Nc2c(F)cccc2F)c2ncccc2c1`, for which the IC50 came to 100 µM.

For the compound `COc1ccc(S(=O)(=O)Nc2cccc3ccc(C)nc23)c(N)c1`, the IC50 was determined as 100 µM.

`O=S(=O)(Nc1cc(Cl)cc2cccnc12)c1ccccc1`: the IC50 is 100 µM.

Regarding `CC(=O)Nc1cc(C(F)(F)F)ccc1S(=O)(=O)Nc1cccc2cccnc12`, the IC50 was 100 µM.

For `CC(C)c1ccc2cccnc2c1NS(=O)(=O)c1ccccc1`, the IC50 is 100 µM.

Take `COC(=O)c1ccnc2c(NS(=O)(=O)c3ccccc3)cccc12`: the IC50 was 50 µM.

For the compound `COc1ccccc1S(=O)(=O)Nc1cccc2cccnc12`, the IC50 worked out at 100 µM.

For the compound `COc1cc2cccnc2c2c1-c1ccccc1S(=O)(=O)N2`, the IC50 worked out at 100 µM.

For `Cc1ccccc1S(=O)(=O)Nc1cccc2cccnc12`, the half-maximal inhibitory concentration (IC50) is 100 µM.

For the compound `Cc1c(Cl)cccc1NS(=O)(=O)Nc1ccc(Cl)c2cccnc12`, the IC50 amounted to 100 µM.

`COc1cc(NS(=O)(=O)c2ccc(Cl)cc2Cl)c2ncccc2c1`: the IC50 worked out at 100 µM.

Consider `Cc1ccc(S(=O)(=O)Nc2cccc3cc(C)cnc23)c(N)c1`, for which the IC50 stood at 100 µM.

For the compound `Cc1cccc(Cl)c1S(=O)(=O)Nc1cccc2cccnc12`, the IC50 was 100 µM.

For `Cc1cc(C)c(S(=O)(=O)Nc2c(Cl)cc(Cl)c3cccnc23)c(C)c1`, the IC50 was 100 µM.

As for `O=S(=O)(Nc1c(O)ccc2cccnc12)c1ccccc1`, the IC50 is 100 µM.

`Cc1cc(NS(=O)(=O)c2ccccc2)c2ncccc2c1C`: the IC50 was determined as 100 µM.

Regarding `O=[N+]([O-])c1cc(C(F)(F)F)ccc1S(=O)(=O)Nc1cccc2cccnc12`, the IC50 is 100 µM.

These data come from ChEMBL document CHEMBL3882731, “Novel sulfonaminoquinoline Hepcidin antagonists” (2014).
